Data published in patent US20210045385A1, “PYRIDAZINONE-SUBSTITUTED KETOXIMES AS HERBICIDES” (FMC Corporation, priority 2018, published 2021).

Columns and labels:
Assay type in all cases: in vivo
kochia (Kochia scoparia) [1] = test: Test A preemergence, visual plant response rating; details: for Kochia plant response rating: 125 g ai/ha, preemergence, 0 to 100 scale, 0 no effect, 100 complete control; for Kochia plant response rating (0 to 100 scale): 500 g ai/ha Preemergence, approx. 10 days
Summary of the method: (§1)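 Ratings use a 0–100 visual scale (100 = complete control) against untreated controls, scored about 10 days after greenhouse treatment. Test chemicals were formulated in surfactant-containing non-phytotoxic solvent and applied either as soil spray after planting (preemergence) or onto one- to two-leaf, 2–10 cm plants (postemergence).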

[2] = test system: foxtail, giant (giant foxtail, Setaria faberii); test: Test A preemergence, visual plant response rating; details: for Foxtail, Giant plant response rating: 125 g ai/ha, preemergence, 0 to 100 scale, 0 no effect, 100 complete control; for Foxtail, Giant plant response rating (0 to 100 scale): 500 g ai/ha Preemergence, approx. 10 days
Summary of the method: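 Compared with untreated controls, treated plants received a visual injury score on a 0–100 scale around 10 days after application. The compound, in a non-phytotoxic solvent with surfactant, was given as a preemergence soil spray or postemergence at the one- to two-leaf stage.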

[3] = test system: barnyardgrass (Echinochloa crus-galli); test: Test A preemergence, visual plant response rating; details: for Barnyardgrass plant response rating: 125 g ai/ha, preemergence, 0 to 100 scale, 0 no effect, 100 complete control; for Barnyardgrass plant response rating (0 to 100 scale): 500 g ai/ha Preemergence, approx. 10 days
Summary of the method: as §1

[4] = test system: ragweed (common ragweed, Ambrosia elatior); test: Test A preemergence, visual plant response rating; details: for Ragweed plant response rating: 125 g ai/ha, preemergence, 0 to 100 scale, 0 no effect, 100 complete control; for Ragweed plant response rating (0 to 100 scale): 500 g ai/ha Preemergence, approx. 10 days
Summary of the method: as §1

[5] = test system: Italian ryegrass (Lolium multiflorum); test: Test A preemergence, visual plant response rating; details: for Ryegrass, Italian plant response rating: 125 g ai/ha, preemergence, 0 to 100 scale, 0 no effect, 100 complete control; for Ryegrass, Italian plant response rating (0 to 100 scale): 500 g ai/ha Preemergence, approx. 10 days
Summary of the method: as §1

[6] = test system: pigweed (Amaranthus retroflexus); test: Test A preemergence, visual plant response rating; details: for Pigweed plant response rating: 125 g ai/ha, preemergence, 0 to 100 scale, 0 no effect, 100 complete control; for Pigweed plant response rating (0 to 100 scale): 500 g ai/ha Preemergence, approx. 10 days
Summary of the method: as §1

[7] = test system: sedge, umbrella (small-flower umbrella sedge, Cyperus difformis); test: Test B flooded paddy test, visual plant response rating; details: 250 g ai/ha, Flood, applied to paddy water, 2-leaf stage, evaluated after 13 to 15 days
Summary of the method: (§2)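 2-leaf plants; pots flooded 3 cm over soil surface; compound dosed straight into the floodwater; depth kept constant; greenhouse 13–15 d; visual rating vs. untreated controls.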

rice (Oryza sativa) = test: as above; details: 250 g ai/ha, Flood, applied to paddy water, 2-leaf stage, evaluated after 13 to 15 days
Summary of the method: as §2

[8] = test system: ducksalad (Heteranhera limosa); test: as above; details: 250 g ai/ha, Flood, applied to paddy water, 2-leaf stage, evaluated after 13 to 15 days
Summary of the method: as §2

[9] = test system: barnyardgrass (Echinochloa crus-galli); test: as above; details: 250 g ai/ha, Flood, applied to paddy water, 2-leaf stage, evaluated after 13 to 15 days
Summary of the method: as §2

kochia (Kochia scoparia) [10] = test: Test A postemergence, visual plant response rating; details: for Kochia plant response rating (0 to 100 scale): 500 g ai/ha, postemergence, 0 is no effect, 100 is complete control; for Kochia plant response rating: Postemergence, 125 g ai/ha, 0 to 100 scale (0 no effect, 100 complete control)
Summary of the method: as §1

[11] = test system: foxtail, giant (giant foxtail, Setaria faberii); test: Test A postemergence, visual plant response rating; details: for Foxtail, Giant plant response rating (0 to 100 scale): 500 g ai/ha, postemergence, 0 is no effect, 100 is complete control; for Foxtail, Giant plant response rating: Postemergence, 125 g ai/ha, 0 to 100 scale (0 no effect, 100 complete control)
Summary of the method: as §1

[12] = test system: barnyardgrass (Echinochloa crus-galli); test: Test A postemergence, visual plant response rating; details: for Barnyardgrass plant response rating (0 to 100 scale): 500 g ai/ha, postemergence, 0 is no effect, 100 is complete control; for Barnyardgrass plant response rating: Postemergence, 125 g ai/ha, 0 to 100 scale (0 no effect, 100 complete control)
Summary of the method: as §1

[13] = test system: ragweed (common ragweed, Ambrosia elatior); test: Test A postemergence, visual plant response rating; details: for Ragweed plant response rating (0 to 100 scale): 500 g ai/ha, postemergence, 0 is no effect, 100 is complete control; for Ragweed plant response rating: Postemergence, 125 g ai/ha, 0 to 100 scale (0 no effect, 100 complete control)
Summary of the method: as §1

[14] = test system: Italian ryegrass (Lolium multiflorum); test: Test A postemergence, visual plant response rating; details: for Ryegrass, Italian plant response rating (0 to 100 scale): 500 g ai/ha, postemergence, 0 is no effect, 100 is complete control; for Ryegrass, Italian plant response rating: Postemergence, 125 g ai/ha, 0 to 100 scale (0 no effect, 100 complete control)
Summary of the method: as §1

[15] = test system: wheat (Triticum aestivum); test: Test A postemergence, visual plant response rating; details: for Wheat plant response rating (0 to 100 scale): 500 g ai/ha, postemergence, 0 is no effect, 100 is complete control; for Wheat plant response rating: Postemergence, 125 g ai/ha, 0 to 100 scale (0 no effect, 100 complete control)
Summary of the method: as §1

corn (Zea mays) = test: Test A postemergence, visual plant response rating; details: for Corn plant response rating (0 to 100 scale): 500 g ai/ha, postemergence, 0 is no effect, 100 is complete control; for Corn plant response rating: Postemergence, 125 g ai/ha, 0 to 100 scale (0 no effect, 100 complete control)
Summary of the method: as §1

[16] = test system: blackgrass (Alopecurus myosuroides); test: Test A postemergence, visual plant response rating; details: for Blackgrass plant response rating (0 to 100 scale): 500 g ai/ha, postemergence, 0 is no effect, 100 is complete control; for Blackgrass plant response rating: Postemergence, 125 g ai/ha, 0 to 100 scale (0 no effect, 100 complete control)
Summary of the method: as §1

[17] = test system: galium (catchweed bedstraw, Galium aparine); test: Test A postemergence, visual plant response rating; details: for Galium plant response rating (0 to 100 scale): 500 g ai/ha, postemergence, 0 is no effect, 100 is complete control; for Galium plant response rating: Postemergence, 125 g ai/ha, 0 to 100 scale (0 no effect, 100 complete control)
Summary of the method: as §1

[18] = test system: pigweed (Amaranthus retroflexus); test: Test A postemergence, visual plant response rating; details: for Pigweed plant response rating (0 to 100 scale): 500 g ai/ha, postemergence, 0 is no effect, 100 is complete control; for Pigweed plant response rating: Postemergence, 125 g ai/ha, 0 to 100 scale (0 no effect, 100 complete control)
Summary of the method: as §1

Structure (SMILES) | Kochia plant response rating (kochia (Kochia scoparia) [1]) | Kochia plant response rating (0 to 100 scale) (kochia (Kochia scoparia) [1]) | Foxtail, Giant plant response rating [2] | Foxtail, Giant plant response rating (0 to 100 scale) [2] | Barnyardgrass plant response rating [3] | Barnyardgrass plant response rating (0 to 100 scale) [3] | Ragweed plant response rating [4] | Ragweed plant response rating (0 to 100 scale) [4] | Ryegrass, Italian plant response rating [5] | Ryegrass, Italian plant response rating (0 to 100 scale) [5] | Pigweed plant response rating [6] | Pigweed plant response rating (0 to 100 scale) [6] | Plant response rating, Sedge, Umbrella (0 to 100 scale, 0 is no effect, 100 is complete control) [7] | Plant response rating, Rice (0 to 100 scale, 0 is no effect, 100 is complete control) (rice (Oryza sativa)) | Plant response rating, Ducksalad (0 to 100 scale, 0 is no effect, 100 is complete control) [8] | Plant response rating, Barnyardgrass (0 to 100 scale, 0 is no effect, 100 is complete control) [9] | Kochia plant response rating (0 to 100 scale) (kochia (Kochia scoparia) [10]) | Kochia plant response rating (kochia (Kochia scoparia) [10]) | Foxtail, Giant plant response rating (0 to 100 scale) [11] | Foxtail, Giant plant response rating [11] | also measured
Cc1nn(C)c(=O)c(C(=NOCC=CCl)c2ccc(F)c3ccccc23)c1O [Compound 106] | 0 | 20 | 100 | 100 | 50 | 90 | 40 | 80 | 60 | 90 | 50 | 80 | 0 | 0 | 0 | 0 | 50 | 20 | 70 | 60 | Barnyardgrass plant response rating (0 to 100 scale) [12]: 90; Barnyardgrass plant response rating [12]: 80; Ragweed plant response rating (0 to 100 scale) [13]: 90; Ragweed plant response rating [13]: 70; Ryegrass, Italian plant response rating (0 to 100 scale) [14]: 100; Ryegrass, Italian plant response rating [14]: 70; Wheat plant response rating (0 to 100 scale) [15]: 50; Wheat plant response rating [15]: 0; Corn plant response rating (0 to 100 scale) (corn (Zea mays)): 30; Corn plant response rating (corn (Zea mays)): 20; Blackgrass plant response rating (0 to 100 scale) [16]: 90; Blackgrass plant response rating [16]: 80; Galium plant response rating (0 to 100 scale) [17]: 90; Galium plant response rating [17]: 80; Pigweed plant response rating (0 to 100 scale) [18]: 80; Pigweed plant response rating [18]: 70
CON=C(c1c(O)c(C)nn(C)c1=O)c1cccc2cc(F)ccc12 [Compound 119] | 30 | 80 | 80 | 100 | 50 | 80 | 90 | 90 | 30 | 100 | 80 | 100 | 0 | 0 | 0 | 0 | 70 | 70 | 80 | 70 | Barnyardgrass plant response rating (0 to 100 scale) [12]: 80; Barnyardgrass plant response rating [12]: 70; Ragweed plant response rating (0 to 100 scale) [13]: 90; Ragweed plant response rating [13]: 90; Ryegrass, Italian plant response rating (0 to 100 scale) [14]: 90; Ryegrass, Italian plant response rating [14]: 80; Wheat plant response rating (0 to 100 scale) [15]: 0; Wheat plant response rating [15]: 0; Corn plant response rating (0 to 100 scale) (corn (Zea mays)): 40; Corn plant response rating (corn (Zea mays)): 10; Blackgrass plant response rating (0 to 100 scale) [16]: 90; Blackgrass plant response rating [16]: 80; Galium plant response rating (0 to 100 scale) [17]: 100; Galium plant response rating [17]: 80; Pigweed plant response rating (0 to 100 scale) [18]: 90; Pigweed plant response rating [18]: 80
CON=C(c1c(O)c(C)nn(C)c1=O)c1cccc2sccc12 [Compound 59] | 10 | 60 | 30 | 70 | 0 | 30 | 30 | 100 | 30 | 90 | 0 | 70 | 0 | 0 | 0 | 0 | 80 | 80 | 60 | 40 | Barnyardgrass plant response rating (0 to 100 scale) [12]: 50; Barnyardgrass plant response rating [12]: 30; Ragweed plant response rating (0 to 100 scale) [13]: 80; Ragweed plant response rating [13]: 60; Ryegrass, Italian plant response rating (0 to 100 scale) [14]: 100; Ryegrass, Italian plant response rating [14]: 80; Wheat plant response rating (0 to 100 scale) [15]: 0; Wheat plant response rating [15]: 0; Corn plant response rating (0 to 100 scale) (corn (Zea mays)): 20; Corn plant response rating (corn (Zea mays)): 0; Blackgrass plant response rating (0 to 100 scale) [16]: 80; Blackgrass plant response rating [16]: 70; Galium plant response rating (0 to 100 scale) [17]: 90; Galium plant response rating [17]: 70; Pigweed plant response rating (0 to 100 scale) [18]: 90; Pigweed plant response rating [18]: 80
